ChEMBL document CHEMBL4814068, “Synthesis and structure-activity relationships of new chiral spiro-β-lactams highly active against HIV-1 and Plasmodium” (Eur J Med Chem, 2021)

System: not listed separately
Experiment: Cytotoxicity against human TZM-bl cells assessed as reduction in cell viability by AlamarBlue assay
Format: cell-based
Conditions: not given

Compound | CC50 [µM]
CC(C)(C)OC(=O)C1=CCC(C(=O)c2ccccc2)C12C(=O)N1[C@@H](C(=O)OC(c3ccccc3)c3ccccc3)C(C)(C)S[C@@H]12 (some centres undefined) | 43.2
CCOC(=O)C1=CC2(N=N1)C(=O)N1[C@@H](C(=O)OC(c3ccccc3)c3ccccc3)C(C)(C)S[C@@H]12 (some centres undefined) | 46.9
CCOC(=O)C1=CCC2(C(=O)N3[C@@H](C(=O)OC(c4ccccc4)c4ccccc4)C(C)(C)S[C@@H]32)C1C(=O)c1ccccc1 (some centres undefined) | 59
CC1(C)S[C@H]2N(C(=O)C23N=NC(C(=O)OC(c2ccccc2)c2ccccc2)=C3C(=O)OC(c2ccccc2)c2ccccc2)[C@H]1C(=O)OC(c1ccccc1)c1ccccc1 (some centres undefined) | 33.5
COC(=O)C1=CCC(C(=O)c2ccccc2)C12C(=O)N1[C@@H](C(=O)OC(c3ccccc3)c3ccccc3)C(C)(C)S[C@@H]12 (some centres undefined) | 54.9
CCOC(=O)C1=CCC(C(=O)c2ccccc2)C12C(=O)N1[C@@H](C(=O)OC(c3ccccc3)c3ccccc3)C(C)(C)S[C@@H]12 (some centres undefined) | 57.1
CC(C)(C)OC(=O)C1=CC2(N=N1)C(=O)N1[C@@H](C(=O)OC(c3ccccc3)c3ccccc3)C(C)(C)S[C@@H]12 (some centres undefined) | 55.1
CCOC(=O)C1=CC2(N=N1)C(=O)N1[C@@H](C(=O)O)C(C)(C)S[C@@H]12 (some centres undefined) | 83.8
CC1(C)S[C@H]2N(C(=O)C23C=C(C(=O)OC(c2ccccc2)c2ccccc2)N=N3)[C@H]1C(=O)OC(c1ccccc1)c1ccccc1 (some centres undefined) | 54.4
COC(=O)C1=CC2(N=N1)C(=O)N1[C@@H](C(=O)OC)C(C)(C)S[C@@H]12 (some centres undefined) | 89.8
CC1(C)S[C@H]2N(C(=O)C23C=C(C(=O)Oc2ccc4ccccc4c2)N=N3)[C@H]1C(=O)OC(c1ccccc1)c1ccccc1 (some centres undefined) | 49.1
CC(C)(C)OC(=O)C1=CCC2(C(=O)N3[C@@H](C(=O)OC(c4ccccc4)c4ccccc4)C(C)(C)S[C@@H]32)C1C(=O)c1ccccc1 (some centres undefined) | 44.4
CC1(C)S[C@H]2N(C(=O)C23C=C(C(=O)O)N=N3)[C@H]1C(=O)O (some centres undefined) | 101
CC1(C)S[C@H]2N(C(=O)C23C(C(=O)OCc2ccccc2)=CCC3C(=O)c2ccccc2)[C@H]1C(=O)O (some centres undefined) | 56.6
COC(=O)C1=CC2(N=N1)C(=O)N1[C@@H](C(=O)NO)C(C)(C)S[C@@H]12 (some centres undefined) | 76.8
CC1(C)S[C@H]2N(C(=O)C23C[C@@H]2CN=N[C@]2(C(=O)OCc2ccccc2)C3C(=O)c2ccccc2)[C@H]1C(=O)OC(c1ccccc1)c1ccccc1 (some centres undefined) | 41.8
COC(=O)[C@@H]1N2C(=O)C3(C(C(=O)OCc4ccccc4)=CCC3C(=O)c3ccccc3)[C@H]2SC1(C)C (some centres undefined) | 55.4
CC1(C)S[C@H]2N(C(=O)C23C=C(C(=O)Oc2ccc4ccccc4c2)N=N3)[C@H]1C(=O)O (some centres undefined) | 68.6
CC1(C)S[C@H]2N(C(=O)C23CC=C(C(=O)OCc2ccccc2)C3C(=O)OCc2ccccc2)[C@H]1C(=O)OC(c1ccccc1)c1ccccc1 (some centres undefined) | 43.2
COC(=O)C1=CCC2(C(=O)N3[C@@H](C(=O)OC(c4ccccc4)c4ccccc4)C(C)(C)S[C@@H]32)C1C(=O)c1ccccc1 (some centres undefined) | 53.2
CC(C)(C)OC(=O)C1=CC2(N=N1)C(=O)N1[C@@H](C(=O)O)C(C)(C)S[C@@H]12 (some centres undefined) | 79
CC1(C)S[C@H]2N(C(=O)C23CC=C(C(=O)OCc2ccccc2)C3C(=O)c2ccccc2)[C@H]1C(=O)O (some centres undefined) | 60.3
CC1(C)S[C@H]2N(C(=O)C23NN=C(C(=O)OCc2ccccc2)C3C(=O)c2ccccc2)[C@H]1C(=O)OC(c1ccccc1)c1ccccc1 (some centres undefined) | 17.2

System: Human immunodeficiency virus 1
Experiment: Antiviral activity against HIV1 SG3.1 infected in human TZM-bl cells assessed as inhibition of viral replication at 10 ug/ml measured after 48 hrs by single round viral infectivity assay based Steady-Glo luciferase assay
Format: functional
Conditions: Human immunodeficiency virus 1, SG3.1, TZM-bl

Compound | inhibition at 10 µg/mL [%]
CC(C)(C)OC(=O)C1=CCC(C(=O)c2ccccc2)C12C(=O)N1[C@@H](C(=O)OC(c3ccccc3)c3ccccc3)C(C)(C)S[C@@H]12 (some centres undefined) | 0
CCOC(=O)C1=CC2(N=N1)C(=O)N1[C@@H](C(=O)OC(c3ccccc3)c3ccccc3)C(C)(C)S[C@@H]12 (some centres undefined) | 0
CCOC(=O)C1=CCC2(C(=O)N3[C@@H](C(=O)OC(c4ccccc4)c4ccccc4)C(C)(C)S[C@@H]32)C1C(=O)c1ccccc1 (some centres undefined) | 99
CC1(C)S[C@H]2N(C(=O)C23N=NC(C(=O)OC(c2ccccc2)c2ccccc2)=C3C(=O)OC(c2ccccc2)c2ccccc2)[C@H]1C(=O)OC(c1ccccc1)c1ccccc1 (some centres undefined) | 0
COC(=O)C1=CCC(C(=O)c2ccccc2)C12C(=O)N1[C@@H](C(=O)OC(c3ccccc3)c3ccccc3)C(C)(C)S[C@@H]12 (some centres undefined) | 0
CCOC(=O)C1=CCC(C(=O)c2ccccc2)C12C(=O)N1[C@@H](C(=O)OC(c3ccccc3)c3ccccc3)C(C)(C)S[C@@H]12 (some centres undefined) | 0
CC(C)(C)OC(=O)C1=CC2(N=N1)C(=O)N1[C@@H](C(=O)OC(c3ccccc3)c3ccccc3)C(C)(C)S[C@@H]12 (some centres undefined) | 0
CCOC(=O)C1=CC2(N=N1)C(=O)N1[C@@H](C(=O)O)C(C)(C)S[C@@H]12 (some centres undefined) | 0
CC1(C)S[C@H]2N(C(=O)C23C=C(C(=O)OC(c2ccccc2)c2ccccc2)N=N3)[C@H]1C(=O)OC(c1ccccc1)c1ccccc1 (some centres undefined) | 0
COC(=O)C1=CC2(N=N1)C(=O)N1[C@@H](C(=O)OC)C(C)(C)S[C@@H]12 (some centres undefined) | 0
CC1(C)S[C@H]2N(C(=O)C23C=C(C(=O)Oc2ccc4ccccc4c2)N=N3)[C@H]1C(=O)OC(c1ccccc1)c1ccccc1 (some centres undefined) | 0
CC(C)(C)OC(=O)C1=CCC2(C(=O)N3[C@@H](C(=O)OC(c4ccccc4)c4ccccc4)C(C)(C)S[C@@H]32)C1C(=O)c1ccccc1 (some centres undefined) | 0
CC1(C)S[C@H]2N(C(=O)C23C=C(C(=O)O)N=N3)[C@H]1C(=O)O (some centres undefined) | 0
CC1(C)S[C@H]2N(C(=O)C23C(C(=O)OCc2ccccc2)=CCC3C(=O)c2ccccc2)[C@H]1C(=O)O (some centres undefined) | 0
COC(=O)C1=CC2(N=N1)C(=O)N1[C@@H](C(=O)NO)C(C)(C)S[C@@H]12 (some centres undefined) | 0
CC1(C)S[C@H]2N(C(=O)C23C[C@@H]2CN=N[C@]2(C(=O)OCc2ccccc2)C3C(=O)c2ccccc2)[C@H]1C(=O)OC(c1ccccc1)c1ccccc1 (some centres undefined) | 0
COC(=O)[C@@H]1N2C(=O)C3(C(C(=O)OCc4ccccc4)=CCC3C(=O)c3ccccc3)[C@H]2SC1(C)C (some centres undefined) | 0
CC1(C)S[C@H]2N(C(=O)C23C=C(C(=O)Oc2ccc4ccccc4c2)N=N3)[C@H]1C(=O)O (some centres undefined) | 0
CC1(C)S[C@H]2N(C(=O)C23CC=C(C(=O)OCc2ccccc2)C3C(=O)OCc2ccccc2)[C@H]1C(=O)OC(c1ccccc1)c1ccccc1 (some centres undefined) | 0
COC(=O)C1=CCC2(C(=O)N3[C@@H](C(=O)OC(c4ccccc4)c4ccccc4)C(C)(C)S[C@@H]32)C1C(=O)c1ccccc1 (some centres undefined) | 99
CC(C)(C)OC(=O)C1=CC2(N=N1)C(=O)N1[C@@H](C(=O)O)C(C)(C)S[C@@H]12 (some centres undefined) | 0
CC1(C)S[C@H]2N(C(=O)C23CC=C(C(=O)OCc2ccccc2)C3C(=O)c2ccccc2)[C@H]1C(=O)O (some centres undefined) | 0

System: Human immunodeficiency virus 1
Experiment: Antiviral activity against HIV1 SG3.1 infected in human TZM-bl cells measured after 48 hrs by single round viral infectivity assay based Steady-Glo luciferase assay
Format: functional, organism-based
Conditions: Human immunodeficiency virus 1, SG3.1, TZM-bl, 48 h

Compound | IC50 [µM]
CCOC(=O)C1=CCC2(C(=O)N3[C@@H](C(=O)OC(c4ccccc4)c4ccccc4)C(C)(C)S[C@@H]32)C1C(=O)c1ccccc1 (some centres undefined) | 0.305
CC1(C)S[C@H]2N(C(=O)C23CC=C(C(=O)OCc2ccccc2)C3C(=O)c2ccccc2)[C@H]1C(=O)OC(c1ccccc1)c1ccccc1 (some centres undefined) | 0.014
COC(=O)C1CC2(N=N1)C(=O)N1[C@@H](C(=O)OC(c3ccccc3)c3ccccc3)C(C)(C)S[C@@H]12 (some centres undefined) | 0.012
CC(=O)C1C(C(=O)OCc2ccccc2)=CCC12C(=O)N1[C@@H](C(=O)OC(c3ccccc3)c3ccccc3)C(C)(C)S[C@@H]12 (some centres undefined) | 0.65
COC(=O)C1=CCC2(C(=O)N3[C@@H](C(=O)OC(c4ccccc4)c4ccccc4)C(C)(C)S[C@@H]32)C1C(=O)c1ccccc1 (some centres undefined) | 0.058

Same assay, conditions: Human immunodeficiency virus 1, SG3.1, TZM-bl; time 48 hrs

Compound | IC90 [µM]
CCOC(=O)C1=CCC2(C(=O)N3[C@@H](C(=O)OC(c4ccccc4)c4ccccc4)C(C)(C)S[C@@H]32)C1C(=O)c1ccccc1 (some centres undefined) | 0.479
COC(=O)C1=CCC2(C(=O)N3[C@@H](C(=O)OC(c4ccccc4)c4ccccc4)C(C)(C)S[C@@H]32)C1C(=O)c1ccccc1 (some centres undefined) | 0.233

System: Plasmodium berghei
Experiment: Antiplasmodial activity against hepatic stage of Plasmodium berghei infected in human Huh7 cells assessed as reduction in parasite growth treated 1 hr prior to infection and measured after 48 hrs by firefly luciferase based bioluminescence assay
Format: functional, organism-based
Conditions: Huh-7

Compound | IC50 [µM]
CCOC(=O)C1=CCC2(C(=O)N3[C@@H](C(=O)OC(c4ccccc4)c4ccccc4)C(C)(C)S[C@@H]32)C1C(=O)c1ccccc1 (some centres undefined) | 1.92
CC1(C)S[C@H]2N(C(=O)C23CC=C(C(=O)OCc2ccccc2)C3C(=O)c2ccccc2)[C@H]1C(=O)OC(c1ccccc1)c1ccccc1 (some centres undefined) | 0.55
COC(=O)C1CC2(N=N1)C(=O)N1[C@@H](C(=O)OC(c3ccccc3)c3ccccc3)C(C)(C)S[C@@H]12 (some centres undefined) | < 10
CC(=O)C1C(C(=O)OCc2ccccc2)=CCC12C(=O)N1[C@@H](C(=O)OC(c3ccccc3)c3ccccc3)C(C)(C)S[C@@H]12 (some centres undefined) | < 5
COC(=O)C1=CCC2(C(=O)N3[C@@H](C(=O)OC(c4ccccc4)c4ccccc4)C(C)(C)S[C@@H]32)C1C(=O)c1ccccc1 (some centres undefined) | 2.29

System: Plasmodium falciparum
Experiment: Antiplasmodial activity against blood stage of Plasmodium falciparum NF54 assessed as inhibition of parasite growth measured after […] by SYBR green 1 dye based flow cytometry
Format: functional, organism-based
Conditions: not given

Compound | IC50 [µM]
CCOC(=O)C1=CCC2(C(=O)N3[C@@H](C(=O)OC(c4ccccc4)c4ccccc4)C(C)(C)S[C@@H]32)C1C(=O)c1ccccc1 (some centres undefined) | 0.844
CC1(C)S[C@H]2N(C(=O)C23CC=C(C(=O)OCc2ccccc2)C3C(=O)c2ccccc2)[C@H]1C(=O)OC(c1ccccc1)c1ccccc1 (some centres undefined) | 0.43
COC(=O)C1=CCC2(C(=O)N3[C@@H](C(=O)OC(c4ccccc4)c4ccccc4)C(C)(C)S[C@@H]32)C1C(=O)c1ccccc1 (some centres undefined) | 1.26

System: Human immunodeficiency virus 2
Experiment: Antiviral activity against HIV2 03PTHCC19 infected in human TZM-bl cells measured after 48 hrs by single round viral infectivity assay based Steady-Glo luciferase assay
Format: functional, organism-based
Conditions: Human immunodeficiency virus 2, 03PTHCC19, TZM-bl

Compound | IC50 [µM]
CC1(C)S[C@H]2N(C(=O)C23CC=C(C(=O)OCc2ccccc2)C3C(=O)c2ccccc2)[C@H]1C(=O)OC(c1ccccc1)c1ccccc1 (some centres undefined) | 0.008
CC(=O)C1C(C(=O)OCc2ccccc2)=CCC12C(=O)N1[C@@H](C(=O)OC(c3ccccc3)c3ccccc3)C(C)(C)S[C@@H]12 (some centres undefined) | 0.51

System: Huh-7
Experiment: Cytotoxicity against human Huh-7 cells assessed as reduction in cell viability by AlamarBlue assay
Format: cell-based
Conditions: not given

Compound | Activity
CCOC(=O)C1=CCC2(C(=O)N3[C@@H](C(=O)OC(c4ccccc4)c4ccccc4)C(C)(C)S[C@@H]32)C1C(=O)c1ccccc1 (some centres undefined) | Non-Toxic
COC(=O)C1=CCC2(C(=O)N3[C@@H](C(=O)OC(c4ccccc4)c4ccccc4)C(C)(C)S[C@@H]32)C1C(=O)c1ccccc1 (some centres undefined) | Non-Toxic
